Where two headings read alike, the source gives them in different places. Where no end group is shown, it is not given here.
Columns and labels:
[1] = test system: Escherichia coli (E. coli) ATCC 25922; assay type: cell-based; conditions: MHB, 5 × 10^5 CFU/mL, 37°C, 18 h, triplicate
Experimental: (§1) The antibacterial activity of the vCPPs was tested using a standard broth microdilution procedure ([Wikler et al., 2006]; [Wiegand et al., 2008]) to evaluate the bacterial growth inhibition and determine the minimal inhibitory concentration (MIC). The assay was performed using the following strains: Gram-positive Staphylococcus aureus (S. aureus) ATCC 25923 and methicillin-resistant Staphylococcus aureus (MRSA) ATCC 33591, and Gram-negative Escherichia coli (E. coli) ATCC 25922 and Pseudomonas aeruginosa (P. aeruginosa) ATCC 27853, obtained from American Type Culture Collection (ATCC) (Manassas, VA, USA). Bacterial suspensions were prepared by direct suspension of morphologically similar colonies on Mueller Hinton Broth (MHB) from BD (Franklin Lakes, NJ, USA) to a final concentration of 1 × 10^6 CFU/mL, and added to a sterile 96-well microtiter polypropylene plate from Corning (Corning, NY, USA) containing two-fold dilutions of each peptide. Final bacterial concentration was 5 × 10^5 CFU/mL whereas peptide concentrations ranged between 100 and 0.78 μM. The 96-well plate was incubated at 37°C for 18 h. The MIC was defined as the lowest peptide concentration required to inhibited visible bacterial growth. The assay was performed in triplicate.

[2] = test system: Pseudomonas aeruginosa (P. aeruginosa) ATCC 27853; assay type: cell-based; conditions: MHB, 5 × 10^5 CFU/mL, 37°C, 18 h, triplicate
Experimental: as §1

[3] = test system: Staphylococcus aureus (S. aureus) ATCC 25923; assay type: cell-based; conditions: MHB, 5 × 10^5 CFU/mL, 37°C, 18 h, triplicate
Experimental: as §1

[4] = test system: methicillin-resistant Staphylococcus aureus (MRSA) ATCC 33591; assay type: cell-based; conditions: MHB, 5 × 10^5 CFU/mL, 37°C, 18 h, triplicate
Experimental: as §1

S. aureus [5] = assay type: cell-based, Staphylococcus aureus; conditions: for bactericidal or bacteriostatic: bactericidal when MBC is equal or lower than four-fold MIC; for MBC: lowest concentration causing ≥99.9% cell death of the inoculum, TSA plates, 37°C, 24 h, triplicate
Experimental: (§2) After the MIC assay, aliquots were removed from the wells with no visible bacterial growth, serially diluted in MHB, plated on nutrient-rich trypcase soy agar (TSA) plates from bioMérieux (Marcy l’Etoile, France), and incubated at 37°C for 24 h. […] The assay was performed in triplicate.

P. aeruginosa [6] = assay type: cell-based; conditions: for bactericidal or bacteriostatic: bactericidal when MBC is equal or lower than four-fold MIC; for MBC: lowest concentration causing ≥99.9% cell death of the inoculum, TSA plates, 37°C, 24 h, triplicate
Experimental: as §2

S. aureus [7] = experiment: Time-kill assay; assay type: cell-based, Staphylococcus aureus; conditions: peptide at its MBC, after 30 min, MHB, 37°C, relative to control without peptide, three independent experiments
Experimental: (§3) For viral protein-derived peptides displaying bactericidal activity, bacterial killing kinetics was determined by a conventional method based on colony counts obtained after different times of exposure of the bacterial cells to the peptides ([Barry et al., 1999]). The assay was performed using S. aureus and P. aeruginosa as representative strains of Gram-positive and Gram-negative bacteria, respectively. Bacterial suspensions prepared in MHB at 5 × 10^5 CFU/mL were treated with each peptide at final concentrations corresponding to their MBC, and incubated at 37°C and 200 rpm. A control of bacterial suspensions without peptide was performed under the same conditions. Aliquots of untreated and peptide-treated bacterial suspensions were withdrawn at 0, 15, 30, 60, 120, and 180 min, serially diluted in MHB, and plated on TSA plates. Bacterial colonies were counted after 24 h of incubation at 37°C. Viable bacteria (in CFU/mL) are reported as percentage of the control. The assay was performed in triplicate.

P. aeruginosa [8] = experiment: Time-kill assay; assay type: cell-based, Pseudomonas aeruginosa; conditions: peptide at its MBC, after 180 min, MHB, 37°C, relative to control without peptide, three independent experiments
Experimental: as §3

P. aeruginosa [9] = experiment: SYTOX Green uptake assay (membrane permeabilization, flow cytometry); assay type: cell-based, Pseudomonas aeruginosa; conditions: P. aeruginosa 5 × 10^5 CFU/mL in 10 mM HEPES pH 7.4, 150 mM NaCl, 1 h, 37°C, twofold dilutions starting at MBC
Experimental: SYTOX® Green (Invitrogen, Carlsbad, CA, USA) is a high-affinity nucleic acid stain that only penetrates cells with compromised plasma membranes and emits fluorescence when bound to DNA ([Roth et al., 1997]). A SYTOX Green uptake assay ([Torcato et al., 2013]; [Sani et al., 2015]) was performed using P. aeruginosa to study the effect of viral protein-derived peptides on those bacterial membranes. Bacterial suspensions at 1 × 10^8 CFU/mL in MHB were centrifuged for 10 min at 4000 × g and the pellet resuspended in 10 mM HEPES buffer, pH 7.4, containing 150 mM NaCl, to a final concentration of 5 × 10^5 CFU/mL. The bacterial suspensions were incubated for 1 h at 37°C and 200 rpm, with twofold dilutions of each bactericidal viral protein-derived peptide in a range of concentrations starting at their corresponding MBC. Peptide-treated bacterial cells were incubated with 0.1 μM of SYTOX Green for 10 min, on ice and protected from light. The fluorescence emission intensity signal was measured by flow cytometry (excitation with 488 nm laser and detection at 530 nm with 30 nm bandpass) and a total of 50 000 events were recorded. […] The percentage of permeabilized cells was determined considering that untreated bacterial cells (negative control) are 0% permeabilized and bacterial cells treated with isopropyl alcohol (positive control) are 100% permeabilized. […]

P. aeruginosa cells = experiment: Atomic force microscopy (AFM) imaging; assay type: cell-based, Pseudomonas aeruginosa; conditions: 1 h, 37°C
Experimental: Atomic force microscopy (AFM) imaging was used to study the effect of the bactericidal viral protein-derived peptides on P. aeruginosa cells. Bacterial suspensions at 1 × 10^8 CFU/mL in MHB were centrifuged for 10 min at 4000 × g, and the pellet resuspended in HEPES buffer to a final concentration of 1 × 10^7 CFU/mL. The bacterial suspensions were treated with each peptide at concentrations corresponding to their MBC, as well as the concentrations above and below their MBC, and incubated for 1 h at 37°C and 200 rpm. As control, untreated bacterial suspension was also incubated using the same conditions. A 200 μL droplet of each test sample was applied on a poly-L-lysine-coated glass slide and allowed to deposit for 20 min at room temperature. Each sample was then rinsed 10 times with sterile Milli-Q water and allowed to dry for 30 min at room temperature. AFM images were acquired using a JPK NanoWizard II (Berlin, Germany) mounted on a Zeiss Axiovert 200 inverted microscope (Göttingen, Germany). Measurements were carried out in air and in intermittent contact mode using uncoated silicon ACL cantilevers from APPNano (Mountain View, CA, USA). ACL cantilevers had typical resonance frequencies of 190 kHz and a spring constant of 45 N/m. Bacteria were first visualized through the optical microscope before being selected for imaging. On average, 14 untreated bacteria and 10 individual bacterial cells were imaged for each peptide concentration, with a total area of 4 μm × 4 μm from three independent bacterial preparation slides. Height images were recorded and treated with JPK SPM data processing 5.1.8.

[10] = test system: Staphylococcus aureus (S. aureus) ATCC 25923; conditions: previous screen, ref Freire et al., 2015a; cited from earlier work
[11] = test system: Pseudomonas aeruginosa (P. aeruginosa) ATCC 27853; conditions: previous screen, ref Freire et al., 2015a; cited from earlier work
MRSA = assay type: cell-based, Staphylococcus aureus; conditions: for bactericidal or bacteriostatic: bactericidal when MBC is equal or lower than four-fold MIC; for MBC: lowest concentration causing ≥99.9% cell death of the inoculum, TSA plates, 37°C, 24 h, triplicate
Experimental: as §2

E. coli = assay type: cell-based, Escherichia coli; conditions: for bactericidal or bacteriostatic: bactericidal when MBC is equal or lower than four-fold MIC; for MBC: lowest concentration causing ≥99.9% cell death of the inoculum, TSA plates, 37°C, 24 h, triplicate
Experimental: as §2

Substance | MIC [1] | MIC [2] | MIC [3] | MIC [4] | bactericidal or bacteriostatic (S. aureus [5]) | MBC (S. aureus [5]) | bactericidal or bacteriostatic (P. aeruginosa [6]) | MBC (P. aeruginosa [6]) | reduction in bacterial viability (S. aureus [7]) | reduction of bacterial viability (P. aeruginosa [8]) | membrane permeabilization (SYTOX Green) (P. aeruginosa [9]) | morphological changes of cell envelope (AFM) (P. aeruginosa cells; all concentrations tested (MBC, above and below)) | MIC [10] | MIC [11] | bactericidal or bacteriostatic (MRSA) | MBC (MRSA) | bactericidal or bacteriostatic (E. coli) | MBC (E. coli) | morphological changes of cell envelope (AFM) (P. aeruginosa cells; 1.56 μM, a concentration below MBC) | morphological changes of cell envelope (AFM) (P. aeruginosa cells; treatment with MBC, or higher)
KKRYKKKYKAYKPYKKKKKF-NH2 [vCPP 0275] | 12.5 µM | 100 µM | 25 to 50 µM | 50 µM | – | – | – | – | – | – | – | – | – | – | – | – | – | – | – | –
INWKKWWQVFYTVV-NH2 [vAMP 059] | – | – | – | – | bactericidal | 1.56 µM | bactericidal | 6.25 µM | 99.9% | 99.7% | increase in membrane permeabilization with increasing peptide concentrations | pronounced collapse in P. aeruginosa cell envelope | 0.78 µM | 6.25 µM | – | – | – | – | – | –
SPRRRTPSPRRRRSQSPRRR-NH2 [vCPP 0417] | 25 µM | 100 µM | >100 µM | >100 µM | – | – | – | – | – | – | – | – | – | – | – | – | – | – | – | –
RRLTLRQLLGLGSRRRRRSR-NH2 [vCPP 0769] | 25 µM | 3.13 µM | 3.13 µM | 3.13 µM | only inhibited bacterial growth | >100 µM | bactericidal | 6.25 µM | – | – | – | – | – | – | only inhibited bacterial growth | >100 µM | bactericidal | 50 µM | – | –
RPRRRATTRRRITTGTRRRR-NH2 [vCPP 0667] | 12.5 µM | 25 µM | 50 µM | 100 µM | – | – | – | – | – | – | – | – | – | – | – | – | – | – | – | –
WRRRYRRWRRRRRWRRRPRR-NH2 [vCPP 2319] | 3.13 µM | 3.13 µM | 1.56 µM | 1.56 µM | bactericidal | 3.13 µM | bactericidal | 3.13 µM | 90.9% | 97% | increase in membrane permeabilization with increasing peptide concentrations | – | – | – | bactericidal | 3.13 µM | bactericidal | 3.13 µM | only minor alterations on bacterial topography | marked collapse of the membrane structure
GRRGPRRANQNGTRRRRRRT-NH2 [vCPP 1779] | 25 µM | 25 µM | – | >100 µM | – | – | – | – | – | – | – | – | – | – | – | – | – | – | – | –

From paper PMC5415599, “New Potent Membrane-Targeting Antibacterial Peptides from Viral Capsid Proteins” (Frontiers in Microbiology, 2017)
